Experimental data from patent US20070049564A1 (Wyeth, priority 2005, published 2007).
Converted amounts (≈) assume the structure as drawn. Where two headings read alike, the source gives them in different places.

Columns and labels:
Assay in all cases: MIC, broth microdilution
[1] = system: S. aureus GC 1079; conditions: Staphylococcus aureus
[2] = system: E. coli GC 2234; conditions: Escherichia coli
Method: (§1) Antimicrobial susceptibility testing. The in vitro activities of the antibiotics are determined by the broth microdilution method as recommended by the National Committee for Clinical Laboratory Standards (NCCLS) (1). Mueller-Hinton II broth (MHBII)(BBL Cockeysville, Md.) is the medium employed in the testing procedures. Microtiter plates containing serial dilutions of each antimicrobial agent are inoculated with each organism to yield the appropriate density (10^5 CFU/ml) in a 100 μl final volume. The plates are incubated for 18-22 hours at 35° C. in ambient air.
(§2) Representative compounds were first incubated in mouse serum for an hour prior to the in vitro testing against a panel of selected gram-positive and gram-negative bacteria strains. All compounds were also pre-incubated in water for an hour prior to testing as control.

[3] = system: S. aureus GC 6466; conditions: Staphylococcus aureus
[4] = system: E. coli GC 2235; conditions: Escherichia coli
[5] = system: E. coli GC 4559; conditions: Escherichia coli
[6] = system: E. coli GC 2271; conditions: Escherichia coli
[7] = system: E. coli GC 6465; conditions: Escherichia coli
[8] = system: S. aureus GC 6467; conditions: Staphylococcus aureus
[9] = system: S. aureus GC 6469; conditions: Staphylococcus aureus
Method: as §1, §2

[10] = system: E. coli GC 4560; conditions: Escherichia coli
[11] = system: S. agalactiae GC 4564; conditions: Streptococcus agalactiae
[12] = system: E. faecium GC 4556; conditions: Enterococcus faecium
[13] = system: E. coli GC 3226; conditions: Escherichia coli
Method: as §1
Representative compounds were first incubated in mouse serum for an hour prior to the in vitro testing against a panel of selected gram-positive and gram-negative bacteria strains. All compounds were also pre-incubated in water for an hour prior to testing as control. Representative compounds of Formula I were incubated in human serum prior to MIC determination.

[14] = system: E. coli GC 2270; conditions: Escherichia coli
[15] = system: E. coli GC 2203; conditions: Escherichia coli
[16] = system: S. typhimurium GC 2172; conditions: Salmonella enterica, TYPHIMURIUM
[17] = system: E. coli GC 2233; conditions: Escherichia coli
[18] = system: E. coli GC 1073; conditions: Escherichia coli
[19] = system: S. pyogenes GC 4563; conditions: Streptococcus pyogenes
[20] = system: S. aureus GC 6335; conditions: Staphylococcus aureus
[21] = GC1079, read-out: MINIMAL INHIBITORY CONCENTRATION MIC, pre-incubated in Mouse Serum
[22] = GC1079, read-out: MINIMAL INHIBITORY CONCENTRATION MIC, pre-incubated in Water
[23] = GC2234, read-out: MINIMAL INHIBITORY CONCENTRATION MIC, pre-incubated in Mouse Serum
[24] = GC2234, read-out: MINIMAL INHIBITORY CONCENTRATION MIC, pre-incubated in Water
[25] = GC6466, read-out: MINIMAL INHIBITORY CONCENTRATION MIC, pre-incubated in Mouse Serum
[26] = GC6466, read-out: MINIMAL INHIBITORY CONCENTRATION MIC, pre-incubated in Water
[27] = GC2235, read-out: MINIMAL INHIBITORY CONCENTRATION MIC, pre-incubated in Mouse Serum
[28] = GC2235, read-out: MINIMAL INHIBITORY CONCENTRATION MIC, pre-incubated in Water
[29] = GC4559, read-out: MINIMAL INHIBITORY CONCENTRATION MIC, pre-incubated in Mouse Serum
[30] = GC4559, read-out: MINIMAL INHIBITORY CONCENTRATION MIC, pre-incubated in Water
[31] = GC2271, read-out: MINIMAL INHIBITORY CONCENTRATION MIC, pre-incubated in Mouse Serum
[32] = GC2271, read-out: MINIMAL INHIBITORY CONCENTRATION MIC, pre-incubated in Water
[33] = GC6465, read-out: MINIMAL INHIBITORY CONCENTRATION MIC, pre-incubated in Mouse Serum
[34] = GC6465, read-out: MINIMAL INHIBITORY CONCENTRATION MIC, pre-incubated in Water
[35] = GC6467, read-out: MINIMAL INHIBITORY CONCENTRATION MIC, pre-incubated in Mouse Serum
[36] = GC6467, read-out: MINIMAL INHIBITORY CONCENTRATION MIC, pre-incubated in Water
[37] = GC6469, read-out: MINIMAL INHIBITORY CONCENTRATION MIC, pre-incubated in Mouse Serum
[38] = GC6469, read-out: MINIMAL INHIBITORY CONCENTRATION MIC, pre-incubated in Water
[39] = GC4560, read-out: MINIMAL INHIBITORY CONCENTRATION MIC, pre-incubated in Mouse Serum
[40] = GC4560, read-out: MINIMAL INHIBITORY CONCENTRATION MIC, pre-incubated in Water
[41] = GC4564, read-out: MINIMAL INHIBITORY CONCENTRATION MIC, pre-incubated in Mouse Serum
[42] = GC4564, read-out: MINIMAL INHIBITORY CONCENTRATION MIC, pre-incubated in Water
[43] = GC4556, read-out: MINIMAL INHIBITORY CONCENTRATION MIC, pre-incubated in Mouse Serum
[44] = GC4556, read-out: MINIMAL INHIBITORY CONCENTRATION MIC, pre-incubated in Water
[45] = GC3226, read-out: MINIMAL INHIBITORY CONCENTRATION MIC, pre-incubated in Mouse Serum
[46] = GC3226, read-out: MINIMAL INHIBITORY CONCENTRATION MIC, pre-incubated in Water
[47] = GC2270, read-out: MINIMAL INHIBITORY CONCENTRATION MIC, pre-incubated in Mouse Serum
[48] = GC2270, read-out: MINIMAL INHIBITORY CONCENTRATION MIC, pre-incubated in Water
[49] = GC2203, read-out: MINIMAL INHIBITORY CONCENTRATION MIC, pre-incubated in Mouse Serum
[50] = GC2203, read-out: MINIMAL INHIBITORY CONCENTRATION MIC, pre-incubated in Water
[51] = read-out: MINIMAL INHIBITORY CONCENTRATION MIC, pre-incubated in Mouse Serum
[52] = read-out: MINIMAL INHIBITORY CONCENTRATION MIC, pre-incubated in Water
[53] = GC2233, read-out: MINIMAL INHIBITORY CONCENTRATION MIC, pre-incubated in Mouse Serum
[54] = GC2233, read-out: MINIMAL INHIBITORY CONCENTRATION MIC, pre-incubated in Water
[55] = GC1073, read-out: MINIMAL INHIBITORY CONCENTRATION MIC, pre-incubated in Mouse Serum
[56] = GC1073, read-out: MINIMAL INHIBITORY CONCENTRATION MIC, pre-incubated in Water
[57] = GC4563, read-out: MINIMAL INHIBITORY CONCENTRATION MIC, pre-incubated in Mouse Serum
[58] = GC4563, read-out: MINIMAL INHIBITORY CONCENTRATION MIC, pre-incubated in Water
[59] = GC6335, read-out: MINIMAL INHIBITORY CONCENTRATION MIC, pre-incubated in Mouse Serum
[60] = GC6335, read-out: MINIMAL INHIBITORY CONCENTRATION MIC, pre-incubated in Water

Structure (SMILES) | MIC [1, 21] | MIC [1, 22] | MIC [2, 23] | MIC [2, 24] | MIC [3, 25] | MIC [3, 26] | MIC [4, 27] | MIC [4, 28] | MIC [5, 29] | MIC [5, 30] | MIC [6, 31] | MIC [6, 32] | MIC [7, 33] | MIC [7, 34] | MIC [8, 35] | MIC [8, 36] | MIC [9, 37] | MIC [9, 38] | MIC [10, 39] | MIC [10, 40] | further results
CCCCN(CC(=O)Nc1cc(N(C)C)c2c(c1O)C(=O)C1=C(O)[C@]3(O)C(=O)C(C(N)=O)=C(O)[C@@H](N(C)C)[C@@H]3C[C@@H]1C2)C(=O)OCOC(=O)c1cccs1 [Example 23, ({[(2-{[(5aR,6aS,7S,10aS)-9-(aminocarbonyl)-4,7-bis(dimethylamino)-1,8,10a,11-tetrahydroxy-10,12-dioxo-5,5a,6,6a,7,10,10a,12-octahydrotetracen-2-yl]amino}-2-oxoethyl)(butyl)amino]carbonyl}oxy)methyl thiophene-2-carboxylate] | 2 µg/mL (≈ 2.6 µM) | 4 µg/mL (≈ 5.2 µM) | 1 µg/mL (≈ 1.3 µM) | > 64 µg/mL | 0.25 µg/mL (≈ 0.325 µM) | 0.5 µg/mL (≈ 0.649 µM) | 1 µg/mL (≈ 1.3 µM) | > 64 µg/mL | 2 µg/mL (≈ 2.6 µM) | > 64 µg/mL | 1 µg/mL (≈ 1.3 µM) | > 64 µg/mL | 4 µg/mL (≈ 5.2 µM) | > 64 µg/mL | 4 µg/mL (≈ 5.2 µM) | 8 µg/mL (≈ 10.4 µM) | 4 µg/mL (≈ 5.2 µM) | 4 µg/mL (≈ 5.2 µM) | 0.5 µg/mL (≈ 0.649 µM) | 8 µg/mL (≈ 10.4 µM) | MIC [11, 41]: 0.25 µg/mL (≈ 0.325 µM); MIC [11, 42]: 0.25 µg/mL (≈ 0.325 µM); MIC [12, 43]: 2 µg/mL (≈ 2.6 µM); MIC [12, 44]: 4 µg/mL (≈ 5.2 µM); MIC [13, 45]: 8 µg/mL (≈ 10.4 µM); MIC [13, 46]: > 64 µg/mL; MIC [14, 47]: 1 µg/mL (≈ 1.3 µM); MIC [14, 48]: > 64 µg/mL; MIC [15, 49]: 1 µg/mL (≈ 1.3 µM); MIC [15, 50]: > 64 µg/mL; MIC [16, 51]: 4 µg/mL (≈ 5.2 µM); MIC [16, 52]: > 64 µg/mL; MIC [17, 53]: 2 µg/mL (≈ 2.6 µM); MIC [17, 54]: > 64 µg/mL; MIC [18, 55]: 1 µg/mL (≈ 1.3 µM); MIC [18, 56]: > 64 µg/mL; MIC [19, 57]: 0.12 µg/mL (≈ 0.156 µM); MIC [19, 58]: 0.25 µg/mL (≈ 0.325 µM); MIC [20, 59]: 2 µg/mL (≈ 2.6 µM); MIC [20, 60]: 4 µg/mL (≈ 5.2 µM)
CCCN(CC(=O)Nc1cc(N(C)C)c2c(c1O)C(=O)C1=C(O)[C@]3(O)C(=O)C(C(N)=O)=C(O)[C@@H](N(C)C)[C@@H]3C[C@@H]1C2)C(=O)OCOC(=O)c1ccc(-c2ccccc2)cc1 [Example 24, ({[(2-{[(5aR,6aS,7S,10aS)-9-(aminocarbonyl)-4,7-bis(dimethylamino)-1,8,10a,11-tetrahydroxy-10,12-dioxo-5,5a,6,6a,7,10,10a,12-octahydrotetracen-2-yl]amino}-2-oxoethyl)(propyl)amino]carbonyl}oxy)methyl 1,1′-biphenyl-4-carboxylate] | 2 µg/mL (≈ 2.42 µM) | 64 µg/mL (≈ 77.5 µM) | 0.5 µg/mL (≈ 0.605 µM) | > 64 µg/mL | 0.25 µg/mL (≈ 0.303 µM) | 0.5 µg/mL (≈ 0.605 µM) | 0.5 µg/mL (≈ 0.605 µM) | > 64 µg/mL | 1 µg/mL (≈ 1.21 µM) | > 64 µg/mL | 0.5 µg/mL (≈ 0.605 µM) | > 64 µg/mL | 8 µg/mL (≈ 9.69 µM) | > 64 µg/mL | 4 µg/mL (≈ 4.84 µM) | > 64 µg/mL | 4 µg/mL (≈ 4.84 µM) | > 64 µg/mL | 0.25 µg/mL (≈ 0.303 µM) | 64 µg/mL (≈ 77.5 µM) | MIC [11, 41]: 0.5 µg/mL (≈ 0.605 µM); MIC [11, 42]: 8 µg/mL (≈ 9.69 µM); MIC [12, 43]: 1 µg/mL (≈ 1.21 µM); MIC [12, 44]: 32 µg/mL (≈ 38.7 µM); MIC [13, 45]: 1 µg/mL (≈ 1.21 µM); MIC [13, 46]: > 64 µg/mL; MIC [14, 47]: 0.5 µg/mL (≈ 0.605 µM); MIC [14, 48]: > 64 µg/mL; MIC [15, 49]: 0.5 µg/mL (≈ 0.605 µM); MIC [15, 50]: > 64 µg/mL; MIC [16, 51]: 8 µg/mL (≈ 9.69 µM); MIC [16, 52]: > 64 µg/mL; MIC [17, 53]: 1 µg/mL (≈ 1.21 µM); MIC [17, 54]: > 64 µg/mL; MIC [18, 55]: 1 µg/mL (≈ 1.21 µM); MIC [18, 56]: > 64 µg/mL; MIC [19, 57]: < 0.06 µg/mL; MIC [19, 58]: < 0.06 µg/mL; MIC [20, 59]: 2 µg/mL (≈ 2.42 µM); MIC [20, 60]: 16 µg/mL (≈ 19.4 µM)
